From ChEMBL document CHEMBL5584295, “Formononetin Derivative for Osteoporosis by Simultaneous Regulating Osteoblast and Osteoclast” (J Nat Prod, 2024)
Calls of active or inactive are those of the source. No cut-off for these calls is given here.

What was measured:
[1] = tested on: MSC; assay: Induction of osteogenesis in Wistar rat bone marrow-derived MSC assessed as increase in ALP at 1 uM measured after 1 week with fresh culture medium replacement for every 3 days by ALP staining based analysis; format: functional, cell-based; conditions: time 1.0 weeks
[2] = tested on: RAW264.7; assay: Inhibition of RANKL-induced osteoclastogenesis in mouse RAW264 cells assessed as number of osteoclast at 1 uM incubated for 5 days by TRAP staining based microscopic analysis (reference value: 95); format: functional; conditions: time 5 day
[3] = tested on: MSC; assay: Induction of osteogenesis in Wistar rat bone marrow-derived MSC assessed as increase in calcium nodes at 1 uM measured after 14 days with fresh culture medium replacement for every 3 days by Alizarin red staining based analysis; format: functional, cell-based; conditions: time 14.0 day
[4] = Induction of osteogenesis in Wistar rat bone marrow-derived MSC assessed as increase in bone formation by measuring fold change at 1 uM measured after 14 days with fresh culture medium replacement for every 3 days by Alizarin red staining based analysis; format: functional; conditions: time 14 day
[5] = Cytotoxicity against Wistar rat bone marrow-derived MSC assessed as reduction in cell viability at 0.4 to 2 uM after 72 hrs by MTS assay; format: toxicity, cell-based; conditions: dose 0.4-2 µM
[6] = Induction of osteogenesis in Wistar rat bone marrow-derived MSC assessed as increase in bone formation by measuring fold change at 0.4 uM measured after 14 days with fresh culture medium replacement for every 3 days by Alizarin red staining based analysis; format: functional; conditions: time 14 day
[7] = Cytotoxicity against Wistar rat bone marrow-derived MSC assessed as inhibition of cell viability at 10 uM after 72 hrs by MTS assay relative to control; format: toxicity, cell-based; conditions: bone marrow-derived mesenchymal stem cells (MSC), read-out: INH
[8] = Cytotoxicity against Wistar rat bone marrow-derived MSC assessed as reduction in cell viability at 0.4 to 10 uM after 72 hrs by MTS assay; format: toxicity, cell-based; conditions: dose 0.4-10 µM
[9] = tested on: Mus musculus; assay: Anti-osteoporosis activity in OVX-induced osteoporosis ICR mouse model assessed as increase in bone mineral density by measuring fold change in femur at 20 mg/kg, IG and measured after 12 weeks by micro-CT analysis; format: functional
[10] = tested on: MSC; assay: Induction of osteogenesis in Wistar rat bone marrow-derived MSC assessed as increase in increase in calcium nodes at 0.4 uM measured after 14 days with fresh culture medium replacement for every 3 days by Alizarin red staining based analysis; format: functional, cell-based; conditions: time 14.0 day
[11] = tested on: RAW264.7; assay: Inhibition of RANK/RANKL/OPG signaling pathway in mouse RAW264.7 cells assessed as decrease in RANKL-stimulated NFATc-1 protein expression level at 1 uM after 5 days by Western blot analysis; format: cell-based; conditions: time 5.0 day
[12] = tested on: Mus musculus; assay: Anti-osteoporosis activity in OVX-induced osteoporosis ICR mouse model assessed as increase in BV/TV by measuring fold change in femur at 20 mg/kg, IG and measured after 12 weeks by micro-CT analysis; format: functional
[13] = tested on: MSC; assay: Induction of osteogenesis in Wistar rat bone marrow-derived MSC assessed as increase in ALP at 0.4 uM measured after 1 week with fresh culture medium replacement for every 3 days by ALP staining based analysis; format: functional, cell-based; conditions: time 1.0 weeks
[14] = tested on: Mus musculus; assay: Anti-osteoporosis activity in OVX-induced osteoporosis ICR mouse model assessed as decrease in trabecular spacing by in femur at 20 mg/kg, IG and measured after 12 weeks by micro-CT analysis relative to control; format: functional; design: scale not given: the % may be the effect or the level left
[15] = tested on: Mus musculus; assay: Anti-osteoporosis activity in OVX-induced osteoporosis ICR mouse model assessed as increase in bone mineral density by measuring fold change in femur at 10 mg/kg, ip and measured after 12 weeks by micro-CT analysis; format: functional
[16] = tested on: Mus musculus; assay: Anti-osteoporosis activity in OVX-induced osteoporosis ICR mouse model assessed as increase in trabecular number by measuring fold change in femur at 20 mg/kg, IG and measured after 12 weeks by micro-CT analysis; format: functional
[17] = tested on: RAW264.7; assay: Inhibition of RANK/RANKL/OPG signaling pathway in mouse RAW264.7 cells assessed as decrease in RANKL-stimulated RANK protein expression level at 1 uM after 5 days by Western blot analysis; format: cell-based; conditions: time 5.0 day
[18] = tested on: RAW264.7; assay: Inhibition of RANK/RANKL/OPG signaling pathway in RANKL-stimulated mouse RAW264.7 cells assessed as increase in c-Jun protein expression level at 1 uM after 5 days by Western blot analysis; format: cell-based; conditions: time 5.0 day
[19] = tested on: RAW264.7; assay: Inhibition of RANKL-induced osteoclastogenesis in mouse RAW264 cells assessed as decrease in number of osteoclast at 1 to 10 uM incubated for 5 days by TRAP staining based microscopic analysis; format: functional, cell-based; conditions: dose 1-10 µM, time 5.0 day
[20] = tested on: RAW264.7; assay: Inhibition of RANK/RANKL/OPG signaling pathway in RANKL-stimulated mouse RAW264.7 cells assessed as increase in OPG protein expression level at 1 uM after 5 days by Western blot analysis; format: cell-based; conditions: time 5.0 day
[21] = tested on: Mus musculus; assay: Anti-osteoporosis activity in OVX-induced osteoporosis ICR mouse model assessed as increase in trabecular thickness by measuring fold change in femur at 10 mg/kg, ip and measured after 12 weeks by micro-CT analysis; format: functional
[22] = tested on: Mus musculus; assay: Anti-osteoporosis activity in OVX-induced osteoporosis ICR mouse model assessed as decrease in trabecular spacing by in femur at 10 mg/kg, ip and measured after 12 weeks by micro-CT analysis relative to control; format: functional; design: scale not given: the % may be the effect or the level left
[23] = tested on: Mus musculus; assay: Anti-osteoporosis activity in OVX-induced osteoporosis ICR mouse model assessed as increase in trabecular number by measuring fold change in femur at 10 mg/kg, ip and measured after 12 weeks by micro-CT analysis; format: functional
[24] = tested on: RAW264.7; assay: Cytotoxicity against mouse RAW264.7 cells assessed as reduction in cell viability at 1 to 10 uM after 72 hrs by MTS assay; format: toxicity, cell-based; conditions: raw264.7, 72 h, dose 1-10 µM
[25] = tested on: Mus musculus; assay: Anti-osteoporosis activity in OVX-induced osteoporosis ICR mouse model assessed as increase in BV/TV by measuring fold change in femur at 10 mg/kg, ip and measured after 12 weeks by micro-CT analysis; format: functional
[26] = tested on: MSC; assay: Activation of BMP/Smad signaling pathway in Wistar rat bone marrow-derived MSC assessed as increase in bmp5 mRNA expression at 0.4 uM incubated for 14 days by RT-qPCR analysis; format: cell-based; conditions: filed as activator, time 14.0 day
[27] = tested on: MSC; assay: Activation of BMP/Smad signaling pathway in Wistar rat bone marrow-derived MSC assessed as increase in bmp2 mRNA expression at 0.4 uM incubated for 14 days by RT-qPCR analysis; format: cell-based; conditions: filed as activator, time 14.0 day
[28] = tested on: Mus musculus; assay: Anti-osteoporosis activity in OVX-induced osteoporosis ICR mouse model assessed as increase in trabecular number in femur at 20 mg/kg, IG and measured after 12 weeks by micro-CT analysis; format: functional, organism-based
[29] = tested on: RAW264.7; assay: Inhibition of RANKL-induced osteoclastogenesis in mouse RAW264 cells assessed as number of osteoclast at 5 uM incubated for 5 days by TRAP staining based microscopic analysis (reference value: 95); format: functional; conditions: time 5 day
[30] = tested on: MSC; assay: Activation of BMP/Smad signaling pathway in Wistar rat bone marrow-derived MSC assessed as increase in smad4 mRNA expression at 0.4 uM incubated for 14 days by RT-qPCR analysis; format: cell-based; conditions: filed as activator, time 14.0 day
[31] = tested on: MSC; assay: Activation of BMP/Smad signaling pathway in Wistar rat bone marrow-derived MSC assessed as increase in alp mRNA expression at 0.4 uM incubated for 14 days by RT-qPCR analysis; format: cell-based; conditions: filed as activator, time 14.0 day
[32] = tested on: RAW264.7; assay: Inhibition of RANKL-induced osteoclastogenesis in mouse RAW264 cells assessed as number of osteoclast at 10 uM incubated for 5 days by TRAP staining based microscopic analysis (reference value: 95); format: functional; conditions: time 5 day
[33] = tested on: MSC; assay: Activation of BMP/Smad signaling pathway in Wistar rat bone marrow-derived MSC assessed as increase in smad9 mRNA expression at 0.4 uM incubated for 14 days by RT-qPCR analysis; format: cell-based; conditions: filed as activator, time 14.0 day
[34] = tested on: MSC; assay: Activation of BMP/Smad signaling pathway in Wistar rat bone marrow-derived MSC assessed as increase in smad1 mRNA expression at 0.4 uM incubated for 14 days by RT-qPCR analysis; format: cell-based; conditions: filed as activator, time 14.0 day
[35] = tested on: Mus musculus; assay: Anti-osteoporosis activity in OVX-induced osteoporosis ICR mouse model assessed as increase in trabecular thickness by measuring fold change in femur at 20 mg/kg, IG and measured after 12 weeks by micro-CT analysis; format: functional

In the case of `COc1ccc(-c2coc3cc(O)ccc3c2=O)cc1` [FORMONONETIN], the Activity [1] is reported as “Active”, the Activity [2] is reported as 66 and the Activity [3] is reported as “Active”. For the same compound, the “fold change (FC)” value [4] was 1.4.

In the case of `COc1ccc(-c2coc3c(C=O)c(O)ccc3c2=O)cc1`, the Activity [5] is reported as “Non-Toxic”, the “fold change (FC)” value [6] is reported as 1.3 and the cytotoxicity at 72 h, 10 µM [7] is reported as 15.5%.

In the case of `CCCCCCN1COc2ccc3c(=O)c(-c4ccc(OC)cc4)coc3c2C1`, the “fold change (FC)” value [6] is reported as 1.2 and the Activity [8] is reported as “Non-Toxic”.

For `CCCCN1COc2ccc3c(=O)c(-c4ccc(OC)cc4)coc3c2C1`, the “fold change (FC)” value [9] was 3.3, the Activity [10] was “Active” and the inhibition [11] was “inactive”. For the same compound, the “fold change (FC)” value [12] was 2.2, the Activity [13] was “Active” and the Activity [14] was 63%. For the same compound, the “fold change (FC)” value [15] was 10.3, the “fold change (FC)” value [16] was 1.42 and the inhibition [17] was “inactive”. The “fold change (FC)” value [6] was 1.9, the inhibition [18] was “inactive” and the inhibition [19] was “inactive”. The inhibition [20] was “inactive”, the “fold change (FC)” value [21] was 1.51 and the Activity [8] was “Non-Toxic”. For the same compound, the Activity [22] was 43%, the “fold change (FC)” value [23] was 1.94 and the Activity [24] was “Non-Toxic”. The “fold change (FC)” value [25] was 6.47.

With `COc1ccc(-c2coc3c4c(ccc3c2=O)OCN(Cc2ccoc2)C4)cc1` the Activity [26] was “Active”, the Activity [27] was “Active” and the Activity [10] was “Active”. The Activity [2] was 30, the inhibition [11] was “Active” and the “fold change (FC)” value [12] was 2.13. The Activity [13] was “Active”, the Activity [28] was “inactive” and the Activity [29] was 24. For the same compound, the Activity [14] was “inactive”, the “fold change (FC)” value [15] was 15.2 and the inhibition [17] was “Active”. The “fold change (FC)” value [6] was 2.3, the inhibition [18] was “Active” and the Activity [30] was “Active”. The Activity [31] was “Active”, the inhibition [20] was “Active” and the “fold change (FC)” value [21] was 1.9. For the same compound, the Activity [8] was “Non-Toxic”, the Activity [32] was 29 and the Activity [22] was 37%. For the same compound, the “fold change (FC)” value [23] was 2.17, the Activity [24] was “Non-Toxic” and the Activity [33] was “Active”. For the same compound, the Activity [34] was “Active” and the “fold change (FC)” value [25] was 9.25.

In the case of `COc1ccc(-c2coc3c4c(ccc3c2=O)OCN(Cc2ccccc2)C4)cc1`, the “fold change (FC)” value [6] is reported as 1 and the Activity [8] is reported as “Non-Toxic”.

For `CCCCCCCCNCc1c(O)ccc2c(=O)c(-c3ccc(OC)cc3)coc12`, the “fold change (FC)” value [6] was 1.1 and the Activity [8] was “Non-Toxic”.

In the case of `CC(C)Oc1ccc2c(=O)c(-c3ccccc3)coc2c1` [IPRIFLAVONE], the “fold change (FC)” value [9] is reported as 3.3, the “fold change (FC)” value [12] is reported as 2.3 and the Activity [28] is reported as “inactive”. The Activity [14] was “inactive”, the “fold change (FC)” value [15] was 1.9 and the “fold change (FC)” value [35] was 1.17. The Activity [22] was “inactive”.

With `COc1ccc(-c2coc3c4c(ccc3c2=O)OCN(C2CCCCC2)C4)cc1` the “fold change (FC)” value [6] was 0.8 and the Activity [8] was “Non-Toxic”.
